From paper PMC9844952 (Molecular Imaging and Biology, 2023)
Values belong to the molecule of their own block, whether it stands above or below them.

Legend:
[1] = target: human mGlu2 receptors (Homo sapiens, UniProt Q14416); experiment: radioligand binding in transfected CHO-K1 cells; settings: glutamate 10 μM
[2] = tested on: mGluR2; experiment: [11C]mG2P001 PET/CT in monkeys; format: in vivo, Cynomolgus fascicularis
[3] = target: norepinephrine transporter (NET) (Homo sapiens, UniProt P23975); experiment: competitive 3H-NE uptake assay in SK-N-SH cells; format: cell-based; settings: read-out: IC50 of 3H-NE uptake; 60 min at 37°C, with pyrogallol and pargyline
[4] = doxorubicin-induced chronic cardiotoxicity model; format: in vivo, C57BL/6J mice; settings: 8x3 mg/kg ip over 2 weeks
[5] = tested on: NCI-H460 Fluc tumours; experiment: PET of NCI-H460 Fluc tumours on chick CAM; format: in vivo, chicken; settings: for tumour uptake in CAM tumours: 60 min p.i.
[6] = cited from earlier work
[7] = LogP of [99mTc]-DTPA-Collagen
[8] = tested on: S. aureus; experiment: in vitro binding to S. aureus
[9] = tested on: Candida albicans 14053; experiment: in vitro tracer uptake, yeast control
[10] = in vitro stability of [99mTc]-DTPA-Collagen; settings: 50h post-incubation, Radio-TLC
[11] = tested on: Escherichia coli 25922; experiment: in vitro tracer uptake, Gram-negative control
[12] = tested on: Gram-positive bacteria; experiment: in vitro tracer uptake, Gram-positive bacteria
[13] = blood half-life and biodistribution of [99mTc]-DTPA-Collagen
[14] = tested on: NCI-H460 Fluc tumours; format: in vivo, mice; settings: 60 min p.i.

Chain of human mGlu2 receptors (Q14416 19-872): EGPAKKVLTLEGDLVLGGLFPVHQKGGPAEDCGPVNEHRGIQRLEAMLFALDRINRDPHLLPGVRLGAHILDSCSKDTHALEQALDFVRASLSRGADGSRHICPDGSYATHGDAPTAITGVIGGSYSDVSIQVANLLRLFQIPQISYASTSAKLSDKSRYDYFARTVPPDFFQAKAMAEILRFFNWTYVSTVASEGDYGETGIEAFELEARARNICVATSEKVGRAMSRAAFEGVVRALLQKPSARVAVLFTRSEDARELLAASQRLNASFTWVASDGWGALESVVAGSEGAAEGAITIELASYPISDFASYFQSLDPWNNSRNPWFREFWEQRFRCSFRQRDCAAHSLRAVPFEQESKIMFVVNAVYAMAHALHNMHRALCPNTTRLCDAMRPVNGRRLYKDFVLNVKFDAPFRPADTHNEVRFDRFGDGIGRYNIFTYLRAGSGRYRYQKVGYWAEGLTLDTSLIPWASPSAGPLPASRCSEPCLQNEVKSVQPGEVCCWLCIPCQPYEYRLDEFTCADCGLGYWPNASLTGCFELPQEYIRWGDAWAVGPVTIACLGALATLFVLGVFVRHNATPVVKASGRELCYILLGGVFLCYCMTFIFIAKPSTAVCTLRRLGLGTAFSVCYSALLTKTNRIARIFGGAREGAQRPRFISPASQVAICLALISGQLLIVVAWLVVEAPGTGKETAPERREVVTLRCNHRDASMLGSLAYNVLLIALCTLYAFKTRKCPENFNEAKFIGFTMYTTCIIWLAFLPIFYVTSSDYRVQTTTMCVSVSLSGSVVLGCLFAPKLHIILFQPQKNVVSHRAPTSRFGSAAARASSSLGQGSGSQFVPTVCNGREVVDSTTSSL
Chain of norepinephrine transporter (NET) (P23975 whole entry): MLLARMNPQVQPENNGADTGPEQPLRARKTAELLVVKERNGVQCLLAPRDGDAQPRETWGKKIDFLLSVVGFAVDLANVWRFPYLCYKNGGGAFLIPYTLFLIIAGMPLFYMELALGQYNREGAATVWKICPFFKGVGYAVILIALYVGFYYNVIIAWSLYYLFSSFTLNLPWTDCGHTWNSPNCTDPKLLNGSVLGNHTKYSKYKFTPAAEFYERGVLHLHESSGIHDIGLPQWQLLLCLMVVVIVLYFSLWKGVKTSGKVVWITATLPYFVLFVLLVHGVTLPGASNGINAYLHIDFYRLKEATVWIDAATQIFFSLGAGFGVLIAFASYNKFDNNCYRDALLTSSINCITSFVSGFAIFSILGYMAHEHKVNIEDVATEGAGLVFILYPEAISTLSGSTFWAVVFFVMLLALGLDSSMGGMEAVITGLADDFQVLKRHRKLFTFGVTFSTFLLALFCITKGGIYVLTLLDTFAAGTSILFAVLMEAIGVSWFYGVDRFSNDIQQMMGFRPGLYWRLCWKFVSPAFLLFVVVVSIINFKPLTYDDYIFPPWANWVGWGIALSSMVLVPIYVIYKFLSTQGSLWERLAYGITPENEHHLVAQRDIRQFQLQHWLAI

Molecule: N=C(N)NCc1cccc(I)c1 [MIBG, meta-iodobenzylguanidine]
IC50 [3]: 1750 ± 470 nM

Molecule: COc1cccc2c1C(=O)c1c(O)c3c(c(O)c1C2=O)C[C@@](O)(C(=O)CO)C[C@@H]3O[C@H]1C[C@H](N)[C@H](O)[C@H](C)O1 [doxorubicin]
overall mortality rate [4]: < 20%

Molecule: N[C@@H](C[C@H](CCC[18F])C(=O)O)C(=O)O [[18F]FSPG]
tumour uptake in CAM tumours [5]: 14.0 ± 5.5 %ID/g
stable in human plasma [6]: up to 4 hours

Molecule: [99mTc]-DTPA-Collagen: Rat Tail Collagen I conjugated to DTPA and labeled with 99mTc
LogP [7]: -3.69±0.58
binding to S. aureus [8]: 66±3%
in vitro uptake [9]: 12±3%
stability [10]: higher than 90%
in vitro uptake [11]: 9±2%
in vitro uptake [12]: 63±7%
blood circulation half-life ([13]; blood extraction): 19 ± 2 min
liver uptake, ex vivo ([13]; rat, in vivo): 6.1±2.8 %ID/g
spleen uptake, ex vivo ([13]; rat, in vivo): 2.1±0.2 %ID/g

Second part, led by results:

maximum enhancement of specific binding vs control [1]: 2 fold
SUVmax in brain ([2]; at 15 min): > 3
Molecule: Cn1c(CN2CCC(c3ccc(C(F)(F)F)cc3O[11CH3])CC2)nc2ncccc21 [[11C]mG2P001, 2-((4-(2-[^11C]methoxy-4-(trifluoromethyl)phenyl)piperidin-1-yl)methyl)-1-methyl-1H-imidazo[4,5-b]pyridine]
enhancement of accumulation (Logan VT) ([2]; representative study, pretreatment with 0.6 mg/kg mG2P001 iv): 33%

tumour uptake in CAM tumours [5]: 10.0 ± 2.1 %ID/g
tumour-to-albumin ratio ([5]; i.v. ~3 MBq): 14.7
tumour uptake in mice [14]: 6.0 ± 1.4 %ID/g
binding to S. aureus [8]: 21±1%
Molecule: O=C[C@H]([18F])[C@@H](O)[C@H](O)[C@H](O)CO [[18F]FDG, 18-fluorodeoxyglucose]
